Measurements reported in US11542492B2 (Celgene CAR LLC, priority 2009, dated 2023).

Legend:
[1] = system: HCT116; experiment: HCT116-WB assay; type: cell-based; settings: Homo sapiens, HCT-116; read-out: HCT116-WB Inhibition Designation
[2] = target: PI3Kβ (Homo sapiens, UniProt P42338); experiment: MALDI MS of intact PI3Kβ incubated with compound; type: binding; settings: 3 hr, 10× fold excess of compound to protein
Experimental: Intact PI3Kβ was incubated for 3 hr at a 10× fold access of compound to protein. 5 μL aliquots of the samples were diluted with 15 μL of 0.1% TFA prior to micro C4 ZipTipping directly onto the MALDI target using Sinapinic acid as the desorption matrix (10 mg/mL in 0.1% TFA:Acetonitrile 50:50). Spots were then analyzed via MALDI-MS. XXII-10 modified PI3Kβ 100% by 3h. XXII-8, XXII-6, XXIII-4, and XXIII-3 each provided between about 35% to about 55% modification.

[3] = target: T1, HCV NS3/4A 1b protease enzyme (wild type) (Hepatitis C virus genotype 1b, UniProt P26663); experiment: HCV protease FRET assay (IC50_APP), wild type NS3/4A 1b; type: biochemical
T1 construct: 10× stocks of NS3/4A protease enzyme from Bioenza (Mountain View, Calif.); purchased Bioenza
Summary of the method: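 Wild-type NS3/4A 1b protease with serially diluted compounds (from 50% DMSO stocks); reaction started at once with FRET substrate and followed 60-90 min at ex485/em520. Initial velocities (0 to 15+ min) normalised to no-inhibitor and no-enzyme controls; apparent IC50 from variable-slope log[inhibitor]-response fit.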

[4] = target: T2, HCV NS3 protease WT 1b (Hepatitis C virus genotype 1b, UniProt P26663); experiment: MALDI MS of intact HCV protease 1b WT incubated with compound; type: binding
T2 construct: The single-chain proteolytic domain (NS4A21-32-GSGS-NS33-631) was cloned into pET-14b; His tag (own knowledge of vector pET-14b); made in house; host or cells: Escherichia coli BL21
Experimental: Intact HCV (protease) 1bWT was incubated for 1 hr at a 10× fold excess of XVI-26 to protein. 3 ul aliquots of the samples were diluted with 10 ul of 0.1% TFA prior to micro C4 ZipTipping directly onto the MALDI target using Sinapinic acid as the desorption matrix (10 mg/mL in 0.1% TFA:Acetonitrile 50:50). […] Due to likely protein misfolding during protein purification, a small portion of the misfolded protein was not modified.
In order to determine whether the modification of the protein occurred at lysine, the pH from the above experiment was increased from 7.4 to 10.0. Because the compound lysine adduct would be an amide any increase in pH would have minimal effect on the modified protein. If however, the modification occurred at cysteine the resultant thioester bond would be unstable and the compound would hydrolyze off the protein.
(§1) Intact HCV (protease) 1bWT, C159S, and C159S/K136A were incubated for 1 hr at a 10× fold excess of XVI-26 to protein. 3 μl aliquots of the samples were diluted with 10 μl of 0.1% TFA prior to micro C4 ZipTipping directly onto the MALDI target using Sinapinic acid as the desorption matrix (10 mg/mL in 0.1% TFA:Acetonitrile 50:50).
Intact HCV (protease) WT1b was incubated for 1 hr at a 10× fold excess of XVI-1 (mw=782.87) to protein. 3 μl aliquots of the samples were diluted with 10 μl of 0.1% TFA prior to micro C4 ZipTipping directly onto the MALDI target using Sinapinic acid as the desorption matrix (10 mg/mL in 0.1% TFA:Acetonitrile 50:50). […] Due to some protein misfolding during the purification of the protein, the unfolded portion of the protein can not react with XVI-1.

[5] = target: T3, HCV protease C159S mutant (Hepatitis C virus genotype 1b, UniProt P26663, C1185S); experiment: MALDI MS of intact HCV protease C159S incubated with compound; type: binding; settings: 1 hr, 10× fold excess
T3 construct: The single-chain proteolytic domain (NS4A21-32-GSGS-NS33-631) was cloned into pET-14b; His tag (own knowledge of vector pET-14b); made in house; host or cells: Escherichia coli BL21
Experimental: as §1

[6] = target: T4, HCV C159S/K136A double mutant (Hepatitis C virus genotype 1b, UniProt P26663, C1185S/K1162A); experiment: MALDI MS of intact HCV protease C159S/K136A double mutant; type: binding; settings: 1 hr, 10× fold excess
T4 construct: The single-chain proteolytic domain (NS4A21-32-GSGS-NS33-631) was cloned into pET-14b; His tag (own knowledge of vector pET-14b); made in house; host or cells: Escherichia coli BL21
Experimental: as §1

[7] = system: NS3/4A self-cleavage activity in Huh-7 cells; experiment: Prolonged duration of action (washout), NS3 self-cleavage in transfected Huh-7 cells; type: cell-based; settings: FIG. 11
Experimental: Parental Huh-7 cells were plated at a density of 1.75×10^6 cells per 100 mm dish in media with 10% FBS. The following day, cells were transfected in OptiMEM using 28 ug of plasmid and 112 ul of Lipfectamine 2000 (Invitrogen), according to manufacturer's instructions. After 4 hours incubation with the transfection complex, the media was changed to Replicon Assay Medium (RPMI supplemented with 5% FBS, 1× non-essential amino acids and pen/strep). The next morning, the cells were trypsinized, counted and replated in Replicon Media at a density of 20,000 cells/well of a 12 well plate (4 wells per genotype). Cells were allowed to adhere to the plate, then the media was removed and replaced with 1 ml media containing XVI-26, (3 wells per compound) and 0.02% DMSO and returned to the incubator overnight. Sixteen hours later 1 treated well from each genotype (0 hr sample) and 1 untreated well were washed with PBS, then lysed and scraped into 30 ul of Cell Extraction Buffer (Biosource, Camarillo, Calif.) plus Complete Protease Inhibitor (Roche, Indianapolis, Ind.). The remaining wells were rinsed 2× with PBS then fed with Replicon Media and returned to the incubator. […] Lysates were resolved using standard immunoblotting methods and NS3 self-cleavage activity was assessed and quantified relative to untreated samples.

Sequence of PI3Kβ (P42338 whole entry): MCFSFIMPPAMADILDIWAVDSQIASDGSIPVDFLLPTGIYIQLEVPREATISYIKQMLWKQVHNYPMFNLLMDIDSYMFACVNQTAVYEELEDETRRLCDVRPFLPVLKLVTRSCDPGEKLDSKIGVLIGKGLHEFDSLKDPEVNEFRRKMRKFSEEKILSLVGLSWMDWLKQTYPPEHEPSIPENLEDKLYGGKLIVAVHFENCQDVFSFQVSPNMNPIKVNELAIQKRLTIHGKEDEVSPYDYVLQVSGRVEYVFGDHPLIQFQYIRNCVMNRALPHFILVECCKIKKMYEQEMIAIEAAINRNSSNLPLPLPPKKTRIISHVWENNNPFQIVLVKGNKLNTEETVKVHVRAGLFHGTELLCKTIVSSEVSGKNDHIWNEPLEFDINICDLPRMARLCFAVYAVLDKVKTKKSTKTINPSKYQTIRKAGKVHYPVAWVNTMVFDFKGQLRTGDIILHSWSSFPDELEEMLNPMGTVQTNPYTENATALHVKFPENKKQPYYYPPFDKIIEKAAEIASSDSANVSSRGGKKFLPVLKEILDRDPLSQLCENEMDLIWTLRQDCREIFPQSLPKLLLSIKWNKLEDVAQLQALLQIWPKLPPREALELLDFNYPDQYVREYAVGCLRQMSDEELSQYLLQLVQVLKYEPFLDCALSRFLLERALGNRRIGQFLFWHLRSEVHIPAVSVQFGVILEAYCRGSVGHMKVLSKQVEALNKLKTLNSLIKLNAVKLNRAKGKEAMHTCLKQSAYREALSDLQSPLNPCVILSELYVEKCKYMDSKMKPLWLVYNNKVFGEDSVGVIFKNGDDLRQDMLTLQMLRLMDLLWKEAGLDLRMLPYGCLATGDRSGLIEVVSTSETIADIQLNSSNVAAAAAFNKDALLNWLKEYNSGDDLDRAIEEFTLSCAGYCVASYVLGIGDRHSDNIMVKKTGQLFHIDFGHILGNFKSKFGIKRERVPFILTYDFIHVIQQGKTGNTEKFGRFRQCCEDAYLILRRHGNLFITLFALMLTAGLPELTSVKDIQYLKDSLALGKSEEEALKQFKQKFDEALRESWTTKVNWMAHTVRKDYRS
Sequence of PI3Kβ (P27986 whole entry partner): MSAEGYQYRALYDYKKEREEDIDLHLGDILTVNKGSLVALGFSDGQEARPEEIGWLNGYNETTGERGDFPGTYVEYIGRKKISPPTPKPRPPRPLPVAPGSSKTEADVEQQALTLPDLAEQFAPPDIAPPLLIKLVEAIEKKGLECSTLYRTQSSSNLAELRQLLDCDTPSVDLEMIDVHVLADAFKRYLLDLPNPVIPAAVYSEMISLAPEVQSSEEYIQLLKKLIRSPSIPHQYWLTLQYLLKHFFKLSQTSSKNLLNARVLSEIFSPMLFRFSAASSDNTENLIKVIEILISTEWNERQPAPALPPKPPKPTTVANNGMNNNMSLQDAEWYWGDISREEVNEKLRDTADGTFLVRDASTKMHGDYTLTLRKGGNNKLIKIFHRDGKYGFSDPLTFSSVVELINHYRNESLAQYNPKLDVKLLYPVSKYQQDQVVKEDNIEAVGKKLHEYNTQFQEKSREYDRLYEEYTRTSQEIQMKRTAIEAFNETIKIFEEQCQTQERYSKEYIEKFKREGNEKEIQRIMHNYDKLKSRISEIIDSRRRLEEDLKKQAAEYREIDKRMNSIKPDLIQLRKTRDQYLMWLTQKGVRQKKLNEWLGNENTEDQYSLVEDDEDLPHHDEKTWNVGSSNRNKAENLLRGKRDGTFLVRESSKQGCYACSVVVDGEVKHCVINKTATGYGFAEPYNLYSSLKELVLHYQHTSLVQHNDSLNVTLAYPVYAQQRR

Row | IC50 [1] | modification of PI3Kβ [2] | SMILES | IC50 [3] | stability of adduct at raised pH ([4]; 1 hour at pH 7.4 followed by 2 hours at pH 10) | MS_HCVNS3_INTACT_NS3 WT 1b 1 HR ([4]; WT 1b, 1 HR) | positive mass shift of HCV C159S [5] | modification of HCV C159S/K136A [6] | duration of action after washout [7]
1 | 100 to 1000 nM | 100% | C=CS(=O)(=O)N(C)Cc1cc2nc(-c3cccc(O)c3)nc(N3CCOCC3)c2s1 [XXII-10] |  |  |  |  |  | 
2 |  |  | C=C[C@@H]1C[C@]1(NC(=O)[C@@H]1CC(Oc2cc(-c3ccccc3)nc3cc(OC)ccc23)CN1C(=O)[C@H](CCC(=O)N1CCC1=O)NC(=O)OC(C)(C)C)C(=O)NS(=O)(=O)C1CC1 (some centres unmarked) [XVI-26] | < 1 nM | did not come off of the protein | H (>50% and ≤70% modification) | 770 Da | no modification | prolonged duration of action
